We go through 35 molecules from patent US8362000B2, “Azetidinyl diamides as monoacylglycerol lipase inhibitors” (Janssen Pharmaceutica NV, priority 2009, dated 2013).

One experiment has as its target T1, mutant MGL (Homo sapiens, UniProt Q99685, L169S/L176S).
T1 sequence (Q99685 1-303 L169S/L176S): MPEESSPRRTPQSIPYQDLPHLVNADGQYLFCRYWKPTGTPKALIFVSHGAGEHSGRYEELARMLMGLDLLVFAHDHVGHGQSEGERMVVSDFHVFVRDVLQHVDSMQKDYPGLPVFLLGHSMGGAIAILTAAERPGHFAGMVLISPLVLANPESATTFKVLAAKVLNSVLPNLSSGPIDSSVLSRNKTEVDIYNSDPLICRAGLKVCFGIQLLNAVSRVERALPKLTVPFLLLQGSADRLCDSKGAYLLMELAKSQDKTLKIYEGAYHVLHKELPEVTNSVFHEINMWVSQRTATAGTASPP
The experiment in a line: MGL ThermoFluor assay - mutant. It is filed as binding. (DSF heats the sample and reads unfolding from a dye or from intrinsic fluorescence.)

In experiment [1] the target is T2, purified wild type MGL (wt-MGLL 6H-11-313) (Homo sapiens, UniProt Q99685).
T2 sequence (Q99685 1-303): T1 sequence (Q99685 1-303 L169S/L176S) with S169L, S176L

The mark [2] stands for this setting: ThermoFluor, compound concentration measured by qNMR, read-out: MGL mutant ThermoFluor qKd (μM) (using qNMR conc.).
Setting [3] is: ThermoFluor, compound concentration measured by qNMR, read-out: MGL mutant ThermoFluor qKd (using qNMR conc.).
[4] abbreviates: ThermoFluor thermal stability binding assay, read-out: MGL mutant ThermoFluor Kd.
Where [5] appears, read: ThermoFluor concentration-response, read-out: MGL mutant ThermoFluor Kd.
Where [6] appears, read: compound concentration measured by qNMR, read-out: MGL mutant ThermoFluor qKd (using qNMR conc.).

Numbering of substitutions follows the chain as printed. Read-outs that look alike come from different tables or passages of the source. A value given as a limit tells only on which side of the number the result lay.

By IC50 is commonly meant the point on the concentration scale where inhibition reaches its midpoint. Higher therefore signals weaker potency in that assay. In the case of `O=C(c1cscn1)N1CCN(C2CN(C(=O)c3cn(-c4cccc(F)c4)c4ccccc34)C2)CC1` [Cpd 1279], at mutant MGL (setting [2]), the Kd was 1.86 µM. This molecule gave an IC50 in experiment [1] of 1900 nM.
For `O=C(c1cc(Br)cs1)N1CC(N2CCN(C(=O)c3nccs3)CC2)C1` [Cpd 806] the same measures were 0.989 µM and 2050 nM.
`O=C(c1ccc(COCC(F)(F)F)cc1)N1CC(N2CCN(C(=O)c3nccs3)CC2)C1` [Cpd 694]: the Kd at mutant MGL (setting [3]) came to 0.048 µM. In addition, the IC50 in experiment [1] amounted to 47 nM.
For the molecule `O=C(c1ccccn1)N1CCN(C2CN(C(=O)c3sc4cc(F)ccc4c3Cl)C2)CC1` [Cpd 810], at mutant MGL (setting [4]), the Kd is 0.29 µM. The molecule also yielded an IC50 in experiment [1] of 2140 nM.
In the case of `O=C(c1ccc(-c2ccccc2)cc1)N1CCN(C2CN(C(=O)c3cscn3)C2)CC1` [Cpd 1246, 1-(Biphenyl-4-ylcarbonyl)-4-[1-(1,3-thiazol-4-ylcarbonyl)azetidin-3-yl]piperazine], on mutant MGL (setting [5]), the Kd was 0.042 µM. The molecule further registered an IC50 in experiment [1] of 506 nM.
Taken in the same sequence, the figures for `Cc1c(C(=O)N2CCN(C3CN(C(=O)c4cc[nH]c4)C3)CC2)sc2cc(C(F)(F)F)ccc12` [Cpd 748] were 0.04 µM and 384 nM.
For `O=C(c1ccc2c(c1)[nH]c(=O)n2-c1ccccc1)N1CC(N2CCN(C(=O)c3nccs3)CC2)C1` [Cpd 933, 1-Phenyl-5-({3-[4-(1,3-thiazol-2-ylcarbonyl)piperazin-1-yl]azetidin-1-yl}carbonyl)-1,3-dihydro-2H-benzimidazol-2-one] the same measures were 0.034 µM and 191 nM.
With `Cc1c(C(=O)N2CC(N3CCN(C(=O)c4nccs4)CC3)C2)[nH]c2ccc(-c3ccnn3C)cc12` [Cpd 1205], the Kd on mutant MGL (setting [2]) came out at 0.008 µM. This molecule showed an IC50 in experiment [1] of 168 nM.
For `O=C(c1ccccc1)N1CCN(C2CN(C(=O)c3ccc4c(ccn4-c4ccc(Cl)c(F)c4)c3)C2)CC1` [Cpd 568] the same measures were 0.099 µM and 72 nM.
As for `O=C(c1cc2cc(-c3ccc(F)cc3)cnc2o1)N1CC(N2CCN(C(=O)c3nccs3)CC2)C1` [Cpd 1213], the Kd on mutant MGL (setting [2]) is 0.765 µM. In experiment [1], this molecule registered a half-maximal inhibitory concentration (IC50) of 206 nM.
Taken in the same sequence, the figures for `O=C(c1ccc(-c2cccc(C(F)(F)F)c2)cc1)N1CC(N2CCN(C(=O)c3cc(Br)cs3)CC2)C1` [Cpd 1087] were 0.023 µM and 9 nM.
Turning to `O=C(c1ccc2[nH]ncc2c1)N1CC(N2CCN(C(=O)c3nccs3)CC2)C1` [Cpd 820, 5-({3-[4-(1,3-Thiazol-2-ylcarbonyl)piperazin-1-yl]azetidin-1-yl}carbonyl)-1H-indazole], the Kd on mutant MGL (setting [2]) came out at 0.996 µM. This molecule showed an IC50 in experiment [1] of 2810 nM.
In the case of `O=C(c1cscn1)N1CCN(C2CN(C(=O)c3cc4cc(Br)cnc4o3)C2)CC1` [Cpd 1448], at mutant MGL (setting [4]), the Kd is 7.09 µM. This molecule had an IC50 in experiment [1] greater than 16700 nM.
As for `O=C(c1cc2cc(Cl)ccc2o1)N1CCN(C2CN(C(=O)c3nccs3)C2)CC1` [Cpd 785], the Kd on mutant MGL (setting [5]) came to 0.5 µM. The molecule further yielded an IC50 in experiment [1] of 1190 nM.
For the molecule `O=C(c1ccc2c(ccn2-c2cncnc2)c1)N1CC(N2CCN(C(=O)c3nccs3)CC2)C1` [Cpd 1263, 1-Pyrimidin-5-yl-5-({3-[4-(1,3-thiazol-2-ylcarbonyl)piperazin-1-yl]azetidin-1-yl}carbonyl)-1H-indole], on mutant MGL (setting [3]), the Kd is 0.215 µM. Further, the IC50 in experiment [1] worked out at 968 nM.
`COc1ccc2c(C)c(C(=O)N3CC(N4CCN(C(=O)c5nccs5)CC4)C3)oc2c1` [Cpd 721]: the Kd on mutant MGL (setting [5]) was found to be 1.14 µM. Besides, the IC50 in experiment [1] was 173 nM.
For the molecule `O=C(c1ccc(SCc2cccc(C(F)(F)F)c2)cc1)N1CC(N2CCN(C(=O)C(F)(F)F)CC2)C1` [Cpd 974], at mutant MGL (setting [6]), the Kd was 1.78 µM. For the same molecule, the IC50 in experiment [1] came to 177 nM.
Turning to `Cc1nn(-c2cccc(C(F)(F)F)c2)c2sc(C(=O)N3CC(N4CCN(C(=O)c5nccs5)CC4)C3)cc12` [Cpd 1146], the Kd at mutant MGL (setting [3]) was 0.08 µM. This molecule gave an IC50 in experiment [1] of 32 nM.
As for `O=C(c1ccc(-c2cccc(C(F)(F)F)c2)cc1)N1CC(N2CCN(C(=O)c3cocn3)CC2)C1` [Cpd 1094], the Kd at mutant MGL (setting [2]) amounted to 0.012 µM. In experiment [1], this molecule showed an IC50 of 11 nM.
Regarding `Cc1nc2cc(C(=O)N3CC(N4CCN(C(=O)c5cscn5)CC4)C3)ccc2n1C1CCCCC1` [Cpd 832], the Kd at mutant MGL (setting [4]) worked out at 0.059 µM. This molecule returned a concentration for half-maximal inhibition (IC50) in experiment [1] of 4240 nM.
Turning to `CCCCC/C=C\C/C=C\CCCCCCCC(=O)N1CC(N2CCN(C(=O)c3nccs3)CC2)C1` [Cpd 638], the Kd on mutant MGL (setting [5]) was found to be 0.172 µM; at mutant MGL (setting [3]), 0.264 µM. Moreover, the IC50 in experiment [1] was found to be 189 nM.
Regarding `Cc1cc2nc(C(=O)N3CC(N4CCN(C(=O)c5ccc[nH]5)CC4)C3)cn2cc1Br` [Cpd 1451], the Kd on mutant MGL (setting [2]) is greater than 16.2 µM. The molecule further displayed an IC50 in experiment [1] greater than 16700 nM.
Turning to `O=C(c1cc2ccc(C(F)(F)F)cc2[nH]1)N1CC(N2CCN(C(=O)c3nccs3)CC2)C1` [Cpd 756], on mutant MGL (setting [5]), the Kd was 0.383 µM. This molecule also displayed a concentration for half-maximal inhibition (IC50) in experiment [1] of 519 nM.
In the case of `O=C(c1ccc2c(ccn2-c2ccc(F)cc2)c1)N1CC(N2CCN(C(=O)c3cocn3)CC2)C1` [Cpd 1428], the Kd at mutant MGL (setting [2]) amounted to 0.018 µM. In experiment [1], this molecule came in with an IC50 of 14 nM.
On to `Cc1cc(C(=O)N2CC(N3CCN(C(=O)c4nccs4)CC3)C2)cc2ccn(-c3ccc(F)cc3)c12` [Cpd 1355, 1-(4-Fluorophenyl)-7-methyl-5-({3-[4-(1,3-thiazol-2-ylcarbonyl)piperazin-1-yl]azetidin-1-yl}carbonyl)-1H-indole], for which the Kd at mutant MGL (setting [6]) turned out to be 0.002 µM. The same molecule had an IC50 in experiment [1] of less than 5 nM.
For the molecule `Cc1ccc2c(C(F)(F)F)c(C(=O)N3CC(N4CCN(C(=O)c5ccccc5)CC4)C3)sc2c1` [Cpd 510, 1-(1-{[6-Methyl-3-(trifluoromethyl)-1-benzothiophen-2-yl]carbonyl}azetidin-3-yl)-4-(phenylcarbonyl)piperazine], the Kd at mutant MGL (setting [5]) was found to be 0.068 µM. Further, in experiment [1], the half-inhibitory concentration (IC50) turned out to be 181 nM.
With `O=C(c1cccnc1)c1c[nH]c2cc(C(=O)N3CC(N4CCN(C(=O)c5nccs5)CC4)C3)ccc12` [Cpd 950], on mutant MGL (setting [6]), the Kd amounted to 0.883 µM. In experiment [1], this molecule registered an IC50 of 1500 nM.
For the molecule `Cc1c(Cc2ccc(C(F)(F)F)cc2)cccc1C(=O)N1CC(N2CCN(C(=O)c3nccs3)CC2)C1` [Cpd 1008], the Kd at mutant MGL (setting [5]) was 0.089 µM. Besides, the half-maximal inhibitory concentration (IC50) in experiment [1] was less than 5 nM.
Turning to `Cc1nc2cc(C(=O)N3CC(N4CCN(C(=O)c5nccs5)CC4)C3)ccc2n1-c1ccc(F)cc1` [Cpd 1227], at mutant MGL (setting [6]), the Kd was 0.011 µM. The molecule further returned an IC50 in experiment [1] of 287 nM.
Turning to `O=C(c1cnc2ccc(Cl)cc2c1)N1CC(N2CCN(C(=O)c3nccs3)CC2)C1` [Cpd 797], the Kd on mutant MGL (setting [3]) turned out to be 0.489 µM. The same molecule registered a concentration for half-maximal inhibition (IC50) in experiment [1] of 1600 nM.
`O=C(c1ccccc1)N1CCN(C2CN(C(=O)c3sc4cc(C(F)(F)F)ccc4c3-c3ccccc3)C2)CC1` [Cpd 591]: the Kd at mutant MGL (setting [4]) is 0.007 µM. The half-inhibitory concentration (IC50) in experiment [1] turned out to be 212 nM.
Regarding `Cc1nc2cc(C(=O)N3CC(N4CCN(C(=O)c5nccs5)CC4)C3)ccc2n1-c1ccccc1` [Cpd 1229], on mutant MGL (setting [6]), the Kd was determined as 0.011 µM. Besides, the IC50 in experiment [1] turned out to be 306 nM.
As for `CCCCC/C=C\C/C=C\C/C=C\C/C=C\CCCC(=O)N1CC(N2CCN(C(=O)c3nccs3)CC2)C1` [Cpd 639], the Kd on mutant MGL (setting [5]) was 0.132 µM. This molecule displayed an IC50 in experiment [1] of 419 nM.
Take `O=C(c1ccccc1)N1CCN(C2CN(C(=O)c3ccc4c(ccn4-c4cc(F)ccc4F)c3)C2)CC1` [Cpd 578]: the Kd on mutant MGL (setting [2]) was determined as 0.195 µM. Further, the IC50 in experiment [1] came out at 63 nM.
Turning to `O=C(c1cccc(-c2cccc(F)c2)c1)N1CC(N2CCN(C(=O)c3cscn3)CC2)C1` [Cpd 1228], on mutant MGL (setting [5]), the Kd stood at 1.42 µM. Also, the IC50 in experiment [1] was 295 nM.
